Assay results: patent publication US12428406B2 (PMV Pharmaceuticals, Inc., priority 2019, dated 2025)

Biological target: T1, p53 Y220C (Homo sapiens, UniProt P04637, Y220C)
T1 construct: The recombinant protein was a truncation mutant containing only amino acids 94-312 of p53; made in house; host or cells: E. coli
Test: In vitro DNA binding activity assay (HTRF / TR-FRET): stabilization of p53 Y220C and increase of its DNA binding activity
Type: biochemical
Details: recombinant His-tagged p53 Y220C DNA binding domain (aa 94-312), biotin-labeled consensus DNA, incubated at 27° C. or 29° C. for 60 min
In short: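 Compounds from 4.5 mM DMSO stocks, 3-fold serial dilutions; room-temperature incubations of 15 and 20 min. SC150 = concentration raising DNA binding by 50% over no-compound control.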

T1 sequence (P04637 94-312, change not shown): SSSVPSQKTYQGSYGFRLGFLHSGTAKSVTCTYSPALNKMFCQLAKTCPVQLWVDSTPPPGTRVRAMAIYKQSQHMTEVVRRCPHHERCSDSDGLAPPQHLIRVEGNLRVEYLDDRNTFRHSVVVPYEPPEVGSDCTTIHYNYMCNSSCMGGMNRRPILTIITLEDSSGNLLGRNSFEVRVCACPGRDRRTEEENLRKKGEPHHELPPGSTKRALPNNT

SC150 (concentration of the compound required to increase the DNA binding activity by 50%) | SMILES
+ (+ = 0 μM ≤ SC150 < 0.05 μM) | COc1cc(S(=O)(=O)N2CCOCC2)ccc1NCC#Cc1cc2c(NC3CCN(C(C)=O)CC3)cccc2n1CC(F)(F)F [Compound 758A, 1-(4-{1[2-(3-{1[2-methoxy-4-(morpholine-4-sulfonyl)phenyl]amino}prop-1-yn-1-yl)-1-(2,2,2-trifluoroethyl)-1H-indol-4-yl]amino}piperidin-1-yl)ethan-1-one]
+ (+ = 0 μM ≤ SC150 < 0.05 μM) | COc1cc(S(N)(=O)=O)ccc1NCC#Cc1cc2c(NC3CCN(C[C@H]4COC(=O)O4)CC3)cccc2n1CC(F)(F)F [Compound 759A, 3-methoxy-4-[(3-{4-[(1-{[(4S)-2-oxo-1,3-dioxolan-4-yl]methyl}piperidin-4-yl)amino]-1-(2,2,2-trifluoroethyl)-1H-indol-2-yl}prop-2-yn-1-yl)amino]benzene-1-sulfonamide]
+ (+ = 0 μM ≤ SC150 < 0.05 μM) | COc1cc(S(=O)(=O)NC(C)=O)ccc1NCC#Cc1cc2c(NC3CCN(CC4COC(=O)O4)CC3)cccc2n1CC(F)(F)F (stereo not drawn) [Compound 761A, N-[3-methoxy-4-({3-[4-({1-[(2-oxo-1,3-dioxolan-4-yl)methyl]piperidin-4-yl}amino)-1-(2,2,2-trifluoroethyl)-1H-indol-2-yl]prop-2-yn-1-yl}amino)benzenesulfonyl]acetamide]
+ (+ = 0 μM ≤ SC150 < 0.05 μM) | CNC(=O)c1ccc(NCC#Cc2cc3c(NC4CCN(CC5COC(=O)O5)CC4)cccc3n2CC(F)(F)F)c(OC)c1 (stereo not drawn) [Compound 762A, 3-methoxy-N-methyl-4-({3-[4-({1-[(2-oxo-1,3-dioxolan-4-yl)methyl]piperidin-4-yl}amino)-1-(2,2,2-trifluoroethyl)-1H-indol-2-yl]prop-2-yn-1-yl}amino)benzamide]
+ (+ = 0 μM ≤ SC150 < 0.05 μM) | COc1cc(S(C)(=O)=O)ccc1NCC#Cc1cc2c(N[C@@H]3CCN4CCC[C@H]4C3)cccc2n1CC(F)(F)F [Compound 764A, N-[(7R,8aS)-octahydroindolizin-7-yl]-2-{3-[(4-methanesulfonyl-2-methoxyphfenyl)amino]prop-1-yn-1-yl}-1-(2,2,2-trifluoroethyl)-1H-indol-4-amine]
+ (+ = 0 μM ≤ SC150 < 0.05 μM) | COc1cc(S(C)(=O)=O)ccc1NCC#Cc1cc2c(N[C@@H]3CCN4CCC[C@@H]4C3)cccc2n1CC(F)(F)F [Compound 765A, N-[(7R,8aR)-octahydroindolizin-7-yl]-2-{3-[(4-methanesulfonyl-2-methoxyphenyl)amino]prop-1-yn-1-yl}-1-(2,2,2-trifluoroethyl)-1H-indol-4-amine]
+ (+ = 0 μM ≤ SC150 < 0.05 μM) | COc1cc(S(C)(=O)=O)ccc1NCC#Cc1cc2c(N[C@H]3CCN(C)C[C@@H]3F)cccc2n1CC(F)(F)F [Compound 771A]
+ (+ = 0 μM ≤ SC150 < 0.05 μM) | COc1cc(S(C)(=O)=O)ccc1NCC#Cc1cc2c(N[C@@H]3CCN(C)C[C@@H]3F)cccc2n1CC(F)(F)F [Compound 772A, N-[(3S,4R)-3-fluoro-1-methylpiperidin-4-yl]-2-{3-[(4-methanesulfonyl-2-methoxyphenyl)amino]prop-1-yn-1-yl}-1-(2,2,2-trifluoroethyl)-1H-indol-4-amine]
+ (+ = 0 μM ≤ SC150 < 0.05 μM) | COc1cc(C(=O)O)ccc1NCC#Cc1cc2c(N[C@H]3CCN(C)C[C@H]3F)cccc2n1CC(F)(F)F [Compound 780A, 4-{[3-(4-{[(3R,4S)-3-fluoro-1-methylpiperidin-4-yl]amino}-1-(2,2,2-trifluoroethyl)-1H-indol-2-yl)prop-2-yn-1-yl]amino}-3-methoxybenzoic acid]
+ (+ = 0 μM ≤ SC150 < 0.05 μM) | COc1cc(C(=O)O)ccc1NCC#Cc1cc2c(N[C@@H]3CCN(C)C[C@@H]3F)cccc2n1CC(F)(F)F [Compound 781A, 4-{[3-(4-{[(3S,4R)-3-fluoro-1-methylpiperidin-4-yl]amino}-1-(2,2,2-trifluoroethyl)-1H-indol-2-yl)prop-2-yn-1-yl]amino}-3-methoxybenzoic acid]
+ (+ = 0 μM ≤ SC150 < 0.05 μM) | COc1cc(C(=O)O)ccc1NCC#Cc1cc2c(N[C@@H]3CCN(C)C[C@H]3F)cccc2n1CC(F)(F)F [Compound 788A, 4-{[3-(4-{[(3R,4R)-3-fluoro-1-methylpiperidin-4-yl]amino}-1-(2,2,2-trifluoroethyl)-1H-indol-2-yl)prop-2-yn-1-yl]amino}-3-methoxybenzoic acid]
++ (++ = 0.05 μM ≤ SC150 < 0.1 μM) | COc1cc(C(=O)O)ccc1NCC#Cc1cc2c(N[C@H]3CCN(C)C[C@@H]3F)cccc2n1CC(F)(F)F [Compound 789A, 4-{[3-(4-{[(3S,4S)-3-fluoro-1-methylpiperidin-4-yl]amino}-1-(2,2,2-trifluoroethyl)-1H-indol-2-yl)prop-2-yn-1-yl]amino}-3-methoxybenzoic acid]
+ (+ = 0 μM ≤ SC150 < 0.05 μM) | COc1cc(S(N)(=O)=O)ccc1NCC#Cc1cc2c(N[C@H]3CCN(C)C[C@H]3F)cccc2n1CC(F)(F)F [Compound 790A, 4-{[3-(4-{[(3R,4S)-3-fluoro-1-methylpiperidin-4-yl]amino}-1-(2,2,2-trifluoroethyl)-1H-indol-2-yl)prop-2-yn-1-yl]amino}-3-methoxybenzene-1-sulfonamide]
+ (+ = 0 μM ≤ SC150 < 0.05 μM) | COc1cc(S(N)(=O)=O)ccc1NCC#Cc1cc2c(N[C@@H]3CCN(C)C[C@@H]3F)cccc2n1CC(F)(F)F [Compound 791A, 4-{[3-(4-{[(3S,4R)-3-fluoro-1-methylpiperidin-4-yl]amino}-1-(2,2,2-trifluoroethyl)-1H-indol-2-yl)prop-2-yn-1-yl]amino}-3-methoxybenzene-1-sulfonamide]
+ (+ = 0 μM ≤ SC150 < 0.05 μM) | COc1cc(C(N)=O)ccc1NCC#Cc1cc2c(N[C@@H]3CCN(C)C[C@@H]3F)cccc2n1CC(F)(F)F [Compound 800A, 4-{[3-(4-{[(3S,4R)-3-fluoro-1-methylpiperidin-4-yl]amino}-1-(2,2,2-trifluoroethyl)-1H-indol-2-yl)prop-2-yn-1-yl]amino}-3-methoxybenzamide]
+ (+ = 0 μM ≤ SC150 < 0.05 μM) | COc1cc(C(N)=O)ccc1NCC#Cc1cc2c(N[C@H]3CCN(C)C[C@H]3F)cccc2n1CC(F)(F)F [Compound 801A, 4-{[3-(4-{[(3R,4S)-3-fluoro-1-methylpiperidin-4-yl]amino}-1-(2,2,2-trifluoroethyl)-1H-indol-2-yl)prop-2-yn-1-yl]amino}-3-methoxybenzamide]
+ (+ = 0 μM ≤ SC150 < 0.05 μM) | COc1cc(S(C)(=O)=O)ccc1NCC#Cc1cc2c(N[C@@H]3CCN(C(C)C)C[C@@H]3F)cccc2n1CC(F)(F)F [Compound 802A]
+ (+ = 0 μM ≤ SC150 < 0.05 μM) | COc1cc(S(C)(=O)=O)ccc1NCC#Cc1cc2c(N[C@H]3CCN(C(C)C)C[C@H]3F)cccc2n1CC(F)(F)F [Compound 803A]
